Experimental data as given in US20040022834A1, “Pharmaceutical oxan preparation” (priority 2000, published 2004).
Where a name gives a salt, the structure may show the parent alone. Read-outs that look alike come from different tables or passages of the source.

Tests used:
[1] = ex vivo permeation on animal skins after pretreatment with a promoter (reference batch CM586); assay type: in vitro ADME; settings: ratio of quantity accumulated at 24 h, trial (skin pretreated with promoter) to reference batch CM586; as dexefaroxan base
From the text: FIG. 3 represents the quantities expressed as dexefaroxan base of the accumulated quantities (μg/cm^2); it involves comparing the reference batch CM586 with or without individual pretreatment with promoters.

[2] = assay type: in vitro ADME
From the text: These values are sufficiently high to make it possible to aim at the daily administration, from a transdermal patch, of a quantity of efaroxan base or hydrochloride in the mg range.
FIG. 4 represents the quantities of idazoxan base and hydrochloride released ex vivo using animal skins, in the case of aqueous alcoholic solutions according to the invention.

Compound | permeation index (PI) [1] | quantities accumulated at 24 hours ([2]; 24 h, 10 % m/v) | quantities accumulated at 24 hours [2] | other results
Sorbitan monooleate | 2.6 |  |  | 
c1ccc2c(c1)OCC(C1=NCCN1)O2 (stereo not shown) [idazoxan hydrochloride, 2-(1,4-benzodiosan-2-yl)-2-imidazoline] |  | ~0.25 mg/cm^2 |  | 
CC[C@]1(C2=NCCN2)Cc2ccccc2O1 [dexefaroxan hydrochloride] |  | ~1.0 mg/cm^2 |  | 
Mannitan oleate | 2.4 |  |  | 
CC[C@]1(C2=NCCN2)Cc2ccccc2O1 [dexefaroxan base] |  |  | ~8.5 mg/cm^2 | 
c1ccc2c(c1)OCC(C1=NCCN1)O2 (stereo not shown) [idazoxan base, 2-(1,4-benzodiosan-2-yl)-2-imidazoline] |  |  | ~5 mg/cm^2 | quantities released at 24 h, base form versus hydrochloride [2]: significantly higher
